The text below walks through data of US20230183292A1, “IMMUNOMODULATORS” (priority 2020, published 2023).

As usually defined, the IC50 is the concentration at which inhibition is half-maximal.

Starred links: 1 amine or outer side, 2 acyl side, 3 side chain; linkers in the order of their positions; H or OH if unused. Positions of bridges follow the written chain, without caps; N, C: chain ends. Non-standard residues stand in square brackets, D forms with d. Residues, ends and D or L forms follow the SMILES beside them. *: point of attachment. Cholyl = C[C@H](CCC(=O)*)[C@H]1CC[C@H]2[C@@H]3[C@H](O)C[C@@H]4C[C@H](O)CC[C@]4(C)[C@H]3C[C@H](O)[C@]12C; Dehydrocholoyl = C[C@H](CCC(=O)*)[C@H]1CC[C@H]2[C@@H]3C(=O)C[C@@H]4CC(=O)CC[C@]4(C)[C@H]3CC(=O)[C@]12C; X18 = CCN(CC)CCCNC(=O)Cn1cc(C[C@H](N[*:1])C(=O)[*:2])c2ccccc21; X35 = O=C(Cn1cc(C[C@H](N[*:1])C(=O)[*:2])c2ccccc21)NCC(F)(F)F; X27 = O=C(Cn1cc(C[C@H](N[*:1])C(=O)[*:2])c2ccccc21)Oc1ccccc1; X4 = O=C(Cn1cc(C[C@H](N[*:1])C(=O)[*:2])c2ccccc21)OCCOCCO; Hyp = O=C(O)[C@@H]1C[C@@H](O)CN1; NMeNle = CCCC[C@H](NC)C(=O)O; NMeA = CN[C@@H](C)C(=O)O; Dab = NCC[C@H](N)C(=O)O; Dap = NC[C@H](N)C(=O)O

T1 sequence (Q9NZQ7 18-239): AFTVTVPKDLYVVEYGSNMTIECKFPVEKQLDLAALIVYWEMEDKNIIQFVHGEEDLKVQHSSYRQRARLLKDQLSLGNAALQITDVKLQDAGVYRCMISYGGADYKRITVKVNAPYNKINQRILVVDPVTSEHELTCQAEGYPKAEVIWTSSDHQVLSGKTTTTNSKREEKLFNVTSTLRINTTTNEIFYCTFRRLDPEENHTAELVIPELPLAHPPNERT

The first test concerns the target T1, PD-1/PD-L1 (Homo sapiens, UniProt Q9NZQ7).
T1 construct: TVMV protease site (C); made in house; host or cells: HEK293T cells
The experiment in a line: PD-1/PD-L1 Homogenous Time-Resolved Fluorescence (HTRF) binding assay. As to conditions: HTRF IC50, PD-L1-His 10 nM, PD-1-Ig 20 nM. In outline:
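Inhibitors pre-incubated 15 min with PD-L1-His (10 nM final) in dPBS, 0.1% BSA, 0.05% Tween-20, then 15 min with PD-1-Ig (20 nM final). Eu-cryptate anti-Ig (1 nM) and APC anti-His (20 nM) added, 30 min equilibration; HTRF 665/620 nm ratio. Human ECD proteins from HEK293T.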
On the technique in general: TR-FRET usually uses a lanthanide donor and a delayed reading to cut background.
Take `CCCC[C@H]1C(=O)N(C)[C@@H](CCCC)C(=O)N[C@@H](CC(C)C)C(=O)N[C@H](C(=O)NCC(N)=O)CSCC(=O)N[C@@H](Cc2ccc(O)cc2)C(=O)N(C)[C@@H](C)C(=O)N[C@@H](CC(N)=O)C(=O)N2CCC[C@H]2C(=O)N[C@@H](CNC(=O)CC[C@@H](C)[C@H]2CC[C@H]3[C@@H]4C(=O)C[C@@H]5CC(=O)CC[C@]5(C)[C@H]4CC(=O)[C@]23C)C(=O)N[C@@H](CC(C)C)C(=O)N2C[C@H](O)C[C@H]2C(=O)N[C@@H](Cc2c[nH]c3ccccc23)C(=O)N[C@@H](CCNC(=O)CC[C@@H](C)[C@H]2CC[C@H]3[C@@H]4C(=O)C[C@@H]5CC(=O)CC[C@]5(C)[C@H]4CC(=O)[C@]23C)C(=O)N[C@@H](Cc2cn(CC(=O)Oc3ccccc3)c3ccccc23)C(=O)N1C` [Example 2015] ({CH2CO}-Y[NMeA]NP[Dap](Dehydrocholoyl)L[Hyp]W[Dab](Dehydrocholoyl)[X27][NMeNle][NMeNle]LCG-NH2; thioether N-14): the IC50 was 20 nM.

The test is the same for the next values; noted with them: PD-L1-His 10 nM, PD-1-Ig 20 nM; read-out: HTRF IC50.
Turning to `CCCC[C@H]1C(=O)N(C)[C@@H](CCCC)C(=O)N[C@@H](CC(C)C)C(=O)N[C@H](C(=O)NCC(N)=O)CSCC(=O)N[C@@H](Cc2ccc(O)cc2)C(=O)N(C)[C@@H](C)C(=O)N[C@@H](CC(N)=O)C(=O)N2CCC[C@H]2C(=O)N[C@@H](CNC(=O)CC[C@@H](C)[C@H]2CC[C@H]3[C@@H]4[C@H](O)C[C@@H]5C[C@H](O)CC[C@]5(C)[C@H]4C[C@H](O)[C@]23C)C(=O)N[C@@H](CC(C)C)C(=O)N2C[C@H](O)C[C@H]2C(=O)N[C@@H](Cc2c[nH]c3ccccc23)C(=O)N[C@@H](CCNC(=O)CC[C@@H](C)[C@H]2CC[C@H]3[C@@H]4[C@H](O)C[C@@H]5C[C@H](O)CC[C@]5(C)[C@H]4C[C@H](O)[C@]23C)C(=O)N[C@@H](Cc2cn(CC(=O)NCCCN(CC)CC)c3ccccc23)C(=O)N1C` [Example 2008] ({CH2CO}-Y[NMeA]NP[Dap](Cholyl)L[Hyp]W[Dab](Cholyl)[X18][NMeNle][NMeNle]LCG-NH2; thioether N-14), the IC50 is 95 nM.

For the compound `CCCC[C@H]1C(=O)N(C)[C@@H](CCCC)C(=O)N[C@@H](CC(C)C)C(=O)N[C@H](C(=O)NCC(N)=O)CSCC(=O)N[C@@H](Cc2ccc(O)cc2)C(=O)N(C)[C@@H](C)C(=O)N[C@@H](CC(N)=O)C(=O)N2CCC[C@H]2CN[C@@H](CNC(=O)CC[C@@H](C)[C@H]2CC[C@H]3[C@@H]4[C@H](O)C[C@@H]5C[C@H](O)CC[C@]5(C)[C@H]4C[C@H](O)[C@]23C)C(=O)N[C@@H](CC(C)C)C(=O)N2C[C@H](O)C[C@H]2C(=O)N[C@@H](Cc2c[nH]c3ccccc23)C(=O)N[C@@H](CCNC(=O)CC[C@@H](C)[C@H]2CC[C@H]3[C@@H]4[C@H](O)C[C@@H]5C[C@H](O)CC[C@]5(C)[C@H]4C[C@H](O)[C@]23C)C(=O)N[C@@H](Cc2cn(CC(=O)NC3CC3)c3ccccc23)C(=O)N1C` [Example 2009], the IC50 was 2900 nM.

Turning to `CCCC[C@H]1C(=O)N(C)[C@@H](CCCC)C(=O)N[C@@H](CC(C)C)C(=O)N[C@H](C(=O)NCC(N)=O)CSCC(=O)N[C@@H](Cc2ccc(O)cc2)C(=O)N(C)[C@@H](C)C(=O)N[C@@H](CC(N)=O)C(=O)N2CCC[C@H]2CN[C@@H](CNC(=O)CC[C@@H](C)[C@H]2CC[C@H]3[C@@H]4[C@H](O)C[C@@H]5C[C@H](O)CC[C@]5(C)[C@H]4C[C@H](O)[C@]23C)C(=O)N[C@@H](CC(C)C)C(=O)N2C[C@H](O)C[C@H]2C(=O)N[C@@H](Cc2c[nH]c3ccccc23)C(=O)N[C@@H](CCNC(=O)CC[C@@H](C)[C@H]2CC[C@H]3[C@@H]4[C@H](O)C[C@@H]5C[C@H](O)CC[C@]5(C)[C@H]4C[C@H](O)[C@]23C)C(=O)N[C@@H](Cc2cn(CC(=O)NCC(F)(F)F)c3ccccc23)C(=O)N1C` [Example 2010], the IC50 came out at 4700 nM.

Take `CCCC[C@H]1C(=O)N(C)[C@@H](CCCC)C(=O)N[C@@H](CC(C)C)C(=O)N[C@H](C(=O)NCC(N)=O)CSCC(=O)N[C@@H](Cc2ccc(O)cc2)C(=O)N(C)[C@@H](C)C(=O)N[C@@H](CC(N)=O)C(=O)N2CCC[C@H]2CN[C@@H](CNC(=O)CC[C@@H](C)[C@H]2CC[C@H]3[C@@H]4C(=O)C[C@@H]5CC(=O)CC[C@]5(C)[C@H]4CC(=O)[C@]23C)C(=O)N[C@@H](CC(C)C)C(=O)N2C[C@H](O)C[C@H]2C(=O)N[C@@H](Cc2c[nH]c3ccccc23)C(=O)N[C@@H](CCNC(=O)CC[C@@H](C)[C@H]2CC[C@H]3[C@@H]4C(=O)C[C@@H]5CC(=O)CC[C@]5(C)[C@H]4CC(=O)[C@]23C)C(=O)N[C@@H](Cc2cn(CC(=O)OC3CC3)c3ccccc23)C(=O)N1C` [Example 2011]: the IC50 is 35 nM.

`CCCC[C@H]1C(=O)N(C)[C@@H](CCCC)C(=O)N[C@@H](CC(C)C)C(=O)N[C@H](C(=O)NCC(N)=O)CSCC(=O)N[C@@H](Cc2ccc(O)cc2)C(=O)N(C)[C@@H](C)C(=O)N[C@@H](CC(N)=O)C(=O)N2CCC[C@H]2CN[C@@H](CNC(=O)CC[C@@H](C)[C@H]2CC[C@H]3[C@@H]4C(=O)C[C@@H]5CC(=O)CC[C@]5(C)[C@H]4CC(=O)[C@]23C)C(=O)N[C@@H](CC(C)C)C(=O)N2C[C@H](O)C[C@H]2C(=O)N[C@@H](Cc2c[nH]c3ccccc23)C(=O)N[C@@H](CCNC(=O)CC[C@@H](C)[C@H]2CC[C@H]3[C@@H]4C(=O)C[C@@H]5CC(=O)CC[C@]5(C)[C@H]4CC(=O)[C@]23C)C(=O)N[C@@H](Cc2cn(CC(=O)OC3CC3)c3ccccc23)C(=O)N1C` [Example 2012]: the IC50 worked out at 27 nM.

With `CCCCOC(=O)Cn1cc(C[C@@H]2NC(=O)[C@H](CCNC(=O)CC[C@@H](C)[C@H]3CC[C@H]4[C@@H]5C(=O)C[C@@H]6CC(=O)CC[C@]6(C)[C@H]5CC(=O)[C@]34C)NC(=O)[C@H](Cc3c[nH]c4ccccc34)NC(=O)[C@@H]3C[C@@H](O)CN3C(=O)[C@H](CC(C)C)NC(=O)[C@H](CNC(=O)CC[C@@H](C)[C@H]3CC[C@H]4[C@@H]5C(=O)C[C@@H]6CC(=O)CC[C@]6(C)[C@H]5CC(=O)[C@]34C)NC[C@@H]3CCCN3C(=O)[C@H](CC(N)=O)NC(=O)[C@H](C)N(C)C(=O)[C@H](Cc3ccc(O)cc3)NC(=O)CSC[C@@H](C(=O)NCC(N)=O)NC(=O)[C@H](CC(C)C)NC(=O)[C@H](CCCC)N(C)C(=O)[C@H](CCCC)N(C)C2=O)c2ccccc21` [Example 2013], the IC50 was determined as 41 nM.

As for `CCCCCCOC(=O)Cn1cc(C[C@@H]2NC(=O)[C@H](CCNC(=O)CC[C@@H](C)[C@H]3CC[C@H]4[C@@H]5C(=O)C[C@@H]6CC(=O)CC[C@]6(C)[C@H]5CC(=O)[C@]34C)NC(=O)[C@H](Cc3c[nH]c4ccccc34)NC(=O)[C@@H]3C[C@@H](O)CN3C(=O)[C@H](CC(C)C)NC(=O)[C@H](CNC(=O)CC[C@@H](C)[C@H]3CC[C@H]4[C@@H]5C(=O)C[C@@H]6CC(=O)CC[C@]6(C)[C@H]5CC(=O)[C@]34C)NC[C@@H]3CCCN3C(=O)[C@H](CC(N)=O)NC(=O)[C@H](C)N(C)C(=O)[C@H](Cc3ccc(O)cc3)NC(=O)CSC[C@@H](C(=O)NCC(N)=O)NC(=O)[C@H](CC(C)C)NC(=O)[C@H](CCCC)N(C)C(=O)[C@H](CCCC)N(C)C2=O)c2ccccc21` [Example 2014], the IC50 was determined as 4600 nM.

`CCCC[C@H]1C(=O)N(C)[C@@H](CCCC)C(=O)N[C@@H](CC(C)C)C(=O)N[C@H](C(=O)NCC(N)=O)CSCC(=O)N[C@@H](Cc2ccc(O)cc2)C(=O)N(C)[C@@H](C)C(=O)N[C@@H](CC(N)=O)C(=O)N2CCC[C@H]2C(=O)N[C@@H](CNC(=O)CC[C@@H](C)[C@H]2CC[C@H]3[C@@H]4C(=O)C[C@@H]5CC(=O)CC[C@]5(C)[C@H]4CC(=O)[C@]23C)C(=O)N[C@@H](CC(C)C)C(=O)N2C[C@H](O)C[C@H]2C(=O)N[C@@H](Cc2c[nH]c3ccccc23)C(=O)N[C@@H](CCNC(=O)CC[C@@H](C)[C@H]2CC[C@H]3[C@@H]4C(=O)C[C@@H]5CC(=O)CC[C@]5(C)[C@H]4CC(=O)[C@]23C)C(=O)N[C@@H](Cc2cn(CC(=O)OCCOCCO)c3ccccc23)C(=O)N1C` [Example 2016] ({CH2CO}-Y[NMeA]NP[Dap](Dehydrocholoyl)L[Hyp]W[Dab](Dehydrocholoyl)[X4][NMeNle][NMeNle]LCG-NH2; thioether N-14): the IC50 is 15 nM.

For the compound `CCCC[C@H]1C(=O)N(C)[C@@H](CCCC)C(=O)N[C@@H](CC(C)C)C(=O)N[C@H](C(=O)NCC(N)=O)CSCC(=O)N[C@@H](Cc2ccc(O)cc2)C(=O)N(C)[C@@H](C)C(=O)N[C@@H](CC(N)=O)C(=O)N2CCC[C@H]2C(=O)N[C@@H](CNC(=O)CC[C@@H](C)[C@H]2CC[C@H]3[C@@H]4C(=O)C[C@@H]5CC(=O)CC[C@]5(C)[C@H]4CC(=O)[C@]23C)C(=O)N[C@@H](CC(C)C)C(=O)N2C[C@H](O)C[C@H]2C(=O)N[C@@H](Cc2c[nH]c3ccccc23)C(=O)N[C@@H](CCNC(=O)CC[C@@H](C)[C@H]2CC[C@H]3[C@@H]4C(=O)C[C@@H]5CC(=O)CC[C@]5(C)[C@H]4CC(=O)[C@]23C)C(=O)N[C@@H](Cc2cn(CC(=O)NCC(F)(F)F)c3ccccc23)C(=O)N1C` [Example 2018] ({CH2CO}-Y[NMeA]NP[Dap](Dehydrocholoyl)L[Hyp]W[Dab](Dehydrocholoyl)[X35][NMeNle][NMeNle]LCG-NH2; thioether N-14), the IC50 came to 17 nM.
